Reference: patent publication US8012940B2, “Utilization of anti-neuropathic pain effect of D-allose and D-psicose” (Teikoku Seiyaku Co., Ltd., priority 2005, dated 2011)

Columns and labels:
[1] = system: Chung model as a rat neuropathic pain model; assay: von Frey test, pain threshold in the Chung model; assay type: in vivo; details: for pain threshold at the von Frey test: vs distilled water-dosed group; for pain threshold, dose dependence: 1 to 6 g/kg oral
Protocol: Male SD rats of age 6 weeks were divided into groups, each group consisting of 10 rats. So as to examine the effect of a test substance on neuropathic pain, the Chung model was prepared. Specifically, unilateral 5-th and 6-th lumbar pulp nerves of the lumbar pulp nerves were completely knotted at a site as close as possible to lumbar vertebrae. After a 10-day recovery period, the von Frey test was done on the footpad on the surgery side, to measure the pain threshold. The von Frey test was done three times at a 1-week interval as drug holiday. At the first test, the effect of D-allose on the pain threshold was examined; and at the second test and the third test, the effects of D-psicose and a mixture of D-allose and D-psicose on the pain threshold were examined. The test substances were all dissolved in distilled water. The dose in volume was 5 mL/kg for oral administration. The pain threshold was measured immediately before the administration of test substances, and 15 minutes, 30 minutes, 60 minutes and 120 minutes after the administration. The results are expressed as mean and standard error. The significance of the mean was tested by the Dunnett's multiple test. Neuropathic pain models are frequently used as human neuralgia models for making research works on pain and screening for analgesics. […] The Chung model as the neuropathic pain model used in the research works is a model with a characteristic feature such that the model is afflicted with a strong pain on contact stimulation, and is known that the model is annoyed with a pain very similar to human neuralgia (Exp. Brain Res., 113, 200-206, 1997). In such model, the von Frey test is frequently used so as to assay the pain intensity via contact. The von Frey test is a method for observing whether or not an animal when the footpad is pressed with a fine metal wire withdraws the leg. When the animal withdraws the leg, the force just pressing the footpad is defined the threshold then.

Solubility in water = assay type: physicochemical
leukocyte = details: in vitro, cited from earlier work

Row | SMILES | pain threshold at the von Frey test ([1]; 1 g/kg oral, N=10) | pain threshold at the von Frey test ([1]; 3 g/kg oral, 15 minutes after administration) | pain threshold at the von Frey test ([1]; 6 g/kg oral, 15, 30 and 60 minutes after administration) | pain threshold, dose dependence ([1]; single administration) | solubility in water (Solubility in water) | active oxygen generation (leukocyte; leukocyte) | pain threshold at the von Frey test ([1]; 1 g/kg oral, 15 minutes after administration) | pain threshold at the von Frey test ([1]; 3 g/kg oral, 15 and 30 minutes after administration) | increase of the threshold compared with the administration of D-allose ([1]; single administration, oral) | MCP-1 secretion (leukocyte; similar experiments) | active oxygen scavenging (leukocyte; similar experiments)
1 | O=C[C@H](O)[C@H](O)[C@H](O)[C@H](O)CO [D-allose] | not significantly different | significant increase | significant increase | highly raised, in a manner proportional to the dose | highly soluble in water | action of suppressing active oxygen generation |  |  |  |  | 
2 | O=C(CO)[C@H](O)[C@H](O)[C@H](O)CO [D-psicose] |  |  |  | highly raised, in a manner proportional to the dose | highly soluble in water |  | not significantly different | significant increase | greater | MCP-1 secretion-suppressing action | active oxygen-scavenging action
